Measurements as given in patent publication US20060211606A1, “Peptides” (priority 2005, published 2006).
Where no end group is shown, it is not given here. [ ]: non-standard residue; d: D form. The star is where a group is joined. Hexanoyl = CCCCCC(=O)*; PEG = not defined here; Ahx = NCCCCCC(=O)O

Key:
C2C12 muscle cells [1] = test: C2C12 proliferation, BrdU incorporation; type: cell-based, mouse; details: 500 cells per well; 0.1, 1, 10 and 100 ng/ml; stimulation 24 hours, BrdU 5 hours
Experimental: (B) Peptides A2, A4, A6 and A8: C2C12 muscle cells at a 500 cells/well. Cultivation was carried out for 24 hours in 10% FBS, followed by starvation for 24 hours in 0.1% BSA, stimulation for 24 hours and then treatment with BrdU for 5 hours. Concentrations of 0.1, 1, 10 and 100 ng/ml of peptides A2, A4, A6 and A8 were tested, along with 0.1, 1, 10 and 100 ng/ml IGF-I (See the right-hand set of results). BrdU incorporation was measured to assess the level of cell proliferation achieved. Controls containing no cells, medium only, 5% FBS and no BrdU were also provided. Values on the Y-axis are for fluorescence (absorbence at 370 nm; mean plus standard error across 4 wells). The first column on the left relates to a control in which no cells were present. The next four relate to peptide A2 at concentrations of 0.1, 1, 10 and 100 ng/ml. The next four relate to peptide A4 at concentrations of 0.1, 1, 10 and 100 ng/ml. The central three relate to controls containing medium only (med), 5% FBS) and no BrdU. The next four relate to peptide A6 at concentrations of 0.1, 1, 10 and 100 ng/ml. The next four relate to peptide A8 at concentrations of 0.1, 1, 10 and 100 ng/ml. The right-hand group of results relate to IGF-I (See Example 1.5) at concentrations of 0.1, 1, 10 and 100 ng/ml.
The 8 amino acid peptides described in 1.3.2 above and referred to in FIG. 8B as A2, A4, A6 and A8 were tested for the ability to induce proliferation of C2C12 muscle cells at a density of 500 cells per well. Cultivation was carried out for 24 hours in 10% FBS, followed by starvation for 24 hours in 0.1% BSA, stimulation for 24 hours and then treatment with BrdU for 5 hours. Concentrations of 0.1, 1, 10 and 100 ng/ml of peptides A2, A4, A6 and A8 were tested, along with 0.1, 1, 10 and 100 ng/ml IGF-I (See the right-hand set of results in FIG. 8B). Incorporation of BrdU was measured to assess the level of cell proliferation achieved. Controls containing no cells, medium only, 5% FBS and no BrdU were also provided.

[2] = Stability to proteolytic cleavage in fresh human plasma, Western blotting
Experimental: Western blotting was then used to assess the survival of each peptide over those time intervals: A=0 minutes; B=30 minutes; C=2 hours; D=24 hours.
Stability may be assessed in terms of half-life in human plasma or by any other suitable technique. In particular, stability can be measured by assessing peptides' susceptibility to proteolytic cleavage in fresh human plasma according to the technique of Example 5.1 below, in which the plasma was stored until used at −70° C., 10 μg of peptide was added to 2 ml of plasma, plus 7 ml of PBS and the mixture was incubated at 37° C. for different time intervals. Western blotting was then used to detect each peptide over those time intervals.
The plasma was stored until used at −70° C. 10 μg of peptide were added to 2 ml of plasma, plus 7 ml of PBS. This mixture was incubated at 37° C. for different time intervals.
Like biological activity, stability was scored on a scale of 0 to 3.
Stability was determined as the amount of the peptide that remained intact and bound to the specific antibody in the following way:

C2C12 muscle cells [3] = test: C2C12 proliferation, Alamar Blue assay; type: cell-based, mouse; details: 2000 cells per well; 2, 5, 50 and 100 ng/ml; medium with IGF-I 2 ng per ml; 36 hours
Experimental: (A) DMGF and CMGF Peptides: C2C12 Cells were provided at 2000 cell/well, in a medium containing DMEM (1000 mg/L glucose), plus BSA(100 ug/ml), plus IGF-I (2 ng per ml) and incubated for 36 hours. Cell proliferation was then assessed using an Alamar Blue assay. […] Y-axis values are fluorescence (wavelength of excitation 535 nm, measurement at 590 nm; mean plus standard error) in an Alamar Blue assay.
The 8 amino acid peptides described in 1.3.1 above and referred to in FIG. 8A as DMGF and CMGF were tested for the ability to induce proliferation of C2C12 muscle cells at a density of 2000 cells per well in a medium containing DMEM (1000 mg/L glucose), BSA (10 ug/ml) and IGF-I (2 ng per ml). Concentrations of 2, 5, 50 and 100 ng/ml of DMGF and CMGF were tested (See the left-hand and middle sets of results in FIG. 8), along with 2, 5, 50 and 100 ng/ml IGF-I alone (See the right-hand set of results in FIG. 8). After 36 hours incubation, an Alamar Blue assay was used to assess the level of cell proliferation achieved. A control containing only the medium was also provided.

[4] = tested on: mononucleated myoblasts (satellite cells); test: Myoblast replication, cell number by Alamar Blue method (0 to 3 scale); type: cell-based
Experimental: FIG. 2: Effect of Alanine substitution and C-terminal and N-terminal truncation on stability and biological activity—further sequence alignment, comparing modified sequences of Peptides 1-6 (SEQ ID NOS: 15-20) and Short peptides 1-4 (SEQ NOS: 21-24), and detailing impact of changes on stability as measured by incubation in human plasma and biological activity as measured by testing on muscle cell line (see Examples for details of test procedures).
In this regard, one method of assessing biological activity is the Alamar Blue method as discussed in Example 5.2.2. This involves contacting a polypeptide with mononucleated myoblast cells and assessing the extent to which it causes them to proliferate. This can be scored in any suitable way, e.g. on a scale of 0 to 3 as discussed in the Examples. Activity may also be measured via cyclins, such as cyclin ID, which are early markers of cell division. Activity may also be measured via the use of bromodeoxy uridine (BrdU).
Biological activity was determined using an in vitro system by measuring the ability of the C terminal peptides to induce mononucleated myoblasts (satellite cells) to replicate. Cell number was determined using the Alamar Blue method.

Row | Substance | proliferation of C2C12 cells (BrdU incorporation) (C2C12 muscle cells [1]) | biological activity score (scale of 0 to 3) [4] | other results
1 | A4: Gly-Ser-Thr-Phe-Glu-Glu-Arg-Lys (SEQ ID NO:34), amidated at the C-terminus, hexanoic acid moiety at the N-terminus (Hexanoyl-GSTFEERK-NH2; SMILES CCCCCC(=O)NCC(=O)N[C@@H](CO)C(=O)N[C@H](C(=O)N[C@@H](Cc1ccccc1)C(=O)N[C@@H](CCC(=O)O)C(=O)N[C@@H](CCC(=O)O)C(=O)N[C@@H](CCCNC(=N)N)C(=O)N[C@@H](CCCCN)C(N)=O)[C@@H](C)O) [Peptide A4] | induced cell proliferation | – | –
2 | YQPPSTNKNTKSQRRKGSTFEERK [native human MGF C terminal Ec peptide, reference compound] | – | – | half-life in human plasma ([2]; human plasma): short half-life
3 | DMGF: Gly-Ser-Thr-Phe-Glu-Glu-His-Lys (SEQ ID NO:33), N-terminal PEGylation, amidated at the C-terminal end ({PEG}-GSTFEEHK-NH2; reading uncertain; also: printed as Gly-Ser-Thr-Phe-Glu-Glu-His-Lys) | – | – | proliferation of C2C12 cells (Alamar Blue fluorescence) (C2C12 muscle cells [3]): induced cell proliferation
4 | YQPPSTNKNTKAQRRKGSTFEEHK [Peptide 3] | – | 3 (significant increase in cell number at 1 h.) | –
5 | Short peptide 3: SEQ ID NO: 15 with Arg14→Ala and the three N-terminal amino acids removed (PSTNKNTKSQARKGSTFEEHK) | – | zero | –
6 | A2: Gly-Ser-Thr-Phe-Glu-Glu-Arg-Lys (SEQ ID NO:34), amidated at the C-terminus, unmodified at the N-terminus (H-GSTFEERK-NH2) [Peptide A2] | induced cell proliferation | – | –
7 | Short peptide 4: SEQ ID NO: 15 with Arg14→Ala and the five N-terminal amino acids removed (TNKNTKSQARKGSTFEEHK) | – | zero | –
8 | YQPPSTNKNTKSQRRKGSTFEEHK [Peptide 1] | – | – | stability score (scale of 0 to 3) ([2]; fresh human plasma, Western blotting, intact peptide bound to specific antibody): 1 (marked loss of detectable antibody binding by ½ hours.); biological activity (in words) [4]: little or no activity
9 | CMGF: Gly-Ser-Thr-Phe-Glu-Glu-His-Lys (SEQ ID NO:33), N-terminal hexanoic acid, amidated at the C-terminal end (Hexanoyl-GSTFEEHK-NH2; SMILES CCCCCC(=O)NCC(=O)N[C@@H](CO)C(=O)N[C@H](C(=O)N[C@@H](Cc1ccccc1)C(=O)N[C@@H](CCC(=O)O)C(=O)N[C@@H](CCC(=O)O)C(=O)N[C@@H](Cc1c[nH]cn1)C(=O)N[C@@H](CCCCN)C(N)=O)[C@@H](C)O) | – | – | proliferation of C2C12 cells (Alamar Blue fluorescence) (C2C12 muscle cells [3]): induced cell proliferation
10 | A8: Gly-Ser-Thr-Phe-Glu-Glu-His-Lys (SEQ ID NO:33), amidated at the C-terminus, hexanoic acid at the N-terminus (Hexanoyl-GSTFEEHK-NH2; SMILES CCCCCC(=O)NCC(=O)N[C@@H](CO)C(=O)N[C@H](C(=O)N[C@@H](Cc1ccccc1)C(=O)N[C@@H](CCC(=O)O)C(=O)N[C@@H](CCC(=O)O)C(=O)N[C@@H](Cc1c[nH]cn1)C(=O)N[C@@H](CCCCN)C(N)=O)[C@@H](C)O) [Peptide A8] | induced cell proliferation | – | –
11 | A6: Gly-Ser-Thr-Phe-Glu-Glu-Arg-Lys (SEQ ID NO:34), amidated at the C-terminus, amino-hexanoic acid moiety at the N-terminus ([Ahx]GSTFEERK-NH2; N-terminus assumed; SMILES C[C@@H](O)[C@H](NC(=O)[C@H](CO)NC(=O)CNC(=O)CCCCCN)C(=O)N[C@@H](Cc1ccccc1)C(=O)N[C@@H](CCC(=O)O)C(=O)N[C@@H](CCC(=O)O)C(=O)N[C@@H](CCCNC(=N)N)C(=O)N[C@@H](CCCCN)C(N)=O) [Peptide A6] | induced cell proliferation | – | –
12 | YQPPSTNKNTKSQAAKGSTFEEHK [Peptide 6] | – | zero | –
13 | Short peptide 2: SEQ ID NO: 15 with Arg14→Ala and the four C-terminal amino acids removed (YQPPSTNKNTKSQARKGSTF) | – | zero | –
